Experiment [1] deals with diabetic rats. Put plainly: Streptozotocin-induced diabetic nephropathy and kidney fibrosis. Particulars: 4 weeks; for kidney fibrosis: periodic acid-Schiff staining. In kind it is in vivo, Wistar rats. As to the method:
Three-month-old male Wistar rats were given intraperitoneal streptozotocin (50 mg/kg) to induce diabetes. Two weeks later, diabetic rats that had fasting blood glucose levels of […] were selected for studies. Caged in a metabolic cage system, the diabetic rats were administered a CB1 antagonist (i.e., compounds 10, 63, and 119) for 4 weeks while their urine was collected. To evaluate renal function, protein and creatinine levels in urine were measured by ELISA. To evaluate renal fibrosis, kidneys were dissected, fixed, paraffin wax embedded, and sectioned for histologic assessment after periodic acid-Schiff staining.

Experiment [2] has as its system estrogen deficiency-induced osteoporosis mice. Put plainly: Treatment of estrogen deficiency-induced osteoporosis mice. It counts as in vivo. The note with it: ovariectomized mice, 5 days per week for 2, 4, and 8 weeks; for trabecular bone microstructure: μCT. Here is the method:
Three-month-old female mice were subjected to bilateral ovariectomy or sham operation. Two weeks postoperatively, a CB1 antagonist (i.e., compounds 10, 63, and 119) or vehicle was administered 5 days per week for 2, 4, and 8 weeks. Bone mineral density and bone mineral contents in femurs, tibiae, and L1-L5 spine were measured by dual energy x-ray absorptiometry. Trabecular bone microstructure (i.e., trabecular bone volume, thickness, number, separation, porosity, and bone volume index) in femurs, tibiae and spine were analyzed by μCT scanning Mechanical strength of the bones was detected by a material test machine.

The test system of experiment [3] is osteoarthritic rats. Put plainly: ACLT-induced knee osteoarthritis. It counts as in vivo, Sprague-Dawley rats. Particulars: 8 weeks. Here is the method: Four-month-old male Sprague-Dawley rats were anesthetized using intramuscular atropine (1 mg/kg) and intraperitoneal pentobarbital. The left knees of rats underwent medial parapatellar arthrotomy and transection of the anterior cruciate ligament (ACLT) to induce knee osteoarthritis. The osteoarthritic rats were given a CB1 antagonist (i.e., compounds 10, 63, and 119) or vehicle for 8 weeks. Knee joint radiography was evaluated by a mammography system. Gait profiles of joints in osteoarthritic rats were analyzed by a CatWalk system. Joint morphology was histologically evaluated by a Mankin scoring system.

In experiment [4] the test system is male C57BL/6 mice. Put plainly: Tetrad response test (body temperature, tail-flick after CP55,940). It counts as in vivo. The note with it: CP55,940 1 mg/kg i.p. Here is the method: Body temperature and tail-flick responses were measured by rectal thermometer (Natsume, Japan) and tail-flick analgesia meter RS232 (Columbus, USA), respectively, in male C57BL/6 mice. One hour after oral administration of a test compound dissolved in DMSO/Tween 80/H2O (1/1/8 by volume), 1 mg/kg of CP55,940 in saline containing 0.5% DMSO was injected intraperitoneally. Body temperature was measured at a time point of 30 and 65 min, and tail flick response was measured at a time point of 35 min after the injection.

Experiment [5] relates to diet-induced obese mice. Put plainly: Treatment of diet-induced obese mice. It counts as in vivo, C57BL/6 mice. The note with it: 21 days. Here is the method: Six-week-old C57BL/6 mice were given high-fat diet (Research Diet D 12451; 45% fat, 20% protein, and 35% carbohydrate) for more than 12 weeks before treated with a test compound. Mice weight matched were assigned to different groups and orally gavaged once daily with a vehicle (10% DMSO/10% Tween 80/80% H2O) or a test compound at a defined dosage (e.g., 10 and 20 mg/kg) for at least two weeks. The sum of food taken for each treatment and the body weight were measured daily.

Each structure is given as a SMILES string.

As to `O=C(NN1CCCCC1)c1nn(-c2ccc(Cl)cc2Cl)c(-c2ccc(Cl)cc2)c1CNS(=O)(=O)N1CCCC1` [Compound 119, 5-(4-Chlorophenyl)-1-(2,4-dichlorophenyl)-N-(piperidin-1-yl)-4-((pyrrolidine-1-sulfonamido)methyl)-1H-pyrazole-3-carboxamide], in experiment [1], the urine albumin level entry is given as “decrease” and the kidney fibrosis entry is reported as “reduction”. Further, in experiment [2], the bone mineral density result was “increase” and the trabecular bone microstructure entry is recorded as “improvement”. Also, the Mankin score result in experiment [3] is given as “reduction”. For the same molecule, in experiment [4] (oral dose up to 100 mg/kg), the “reversal of CB1 agonist-induced analgesic response” value was “did not reverse or slightly reversed” and the “reversal of CB1 agonist-induced hypothermia” value was “did not reverse or slightly reversed”.
With `O=C(NN1CCCCC1)c1nn(-c2ccc(Cl)cc2Cl)c(-c2ccc(C#Cc3ccc(C(F)(F)F)cc3)s2)c1CNS(=O)(=O)N1CCCC1` [Compound 10, 1-(2,4-Dichlorophenyl)-N-(piperidin-1-yl)-4-((pyrrolidine-1-sulfonamido)methyl)-5-(5-((4-(trifluoromethyl)phenyl)ethynyl)thiophen-2-yl)-1H-pyrazole-3-carboxamide], in experiment [1], the urine albumin level entry is given as “decrease” and the kidney fibrosis result was “reduction”. Moreover, in experiment [2], the bone mineral density entry is “increase” and the trabecular bone microstructure result is “improvement”. The Mankin score result in experiment [3] was “reduction”. For the same molecule, in experiment [5] (10 mg/kg group, oral once daily), the relative weight-loss rate is on record as 26.4%. In experiment [5] (20 mg/kg group, oral once daily), the relative weight-loss rate stood at 32.8%. Further, in experiment [4] (oral dose up to 100 mg/kg), the “reversal of CB1 agonist-induced analgesic response” value is “did not reverse or slightly reversed” and the “reversal of CB1 agonist-induced hypothermia” value is recorded as “did not reverse or slightly reversed”.
In experiment [5] (rimonabant comparison, dose not given), `Cc1c(C(=O)NN2CCCCC2)nn(-c2ccc(Cl)cc2Cl)c1-c1ccc(Cl)cc1` [rimonabant, reference compound] registered a relative weight-loss rate of 29.1%. In experiment [4] (dose as low as 2 mg/kg), the “reversal of CB1 agonist-induced analgesic response” value was “significantly reversed” and the “reversal of CB1 agonist-induced hypothermia” value is “significantly reversed”.
For the molecule `CCCC#Cc1ccc(-c2c(CNS(=O)(=O)N3CCCCC3)c(C(=O)NN3CCCCC3)nn2-c2ccc(Cl)cc2Cl)s1` [Compound 63, 1-(2,4-Dichlorophenyl)-5-(5-(pent-1-ynyl)thiophen-2-yl)-N-(piperidin-1-yl)-4-((piperidine-1-sulfonamido)methyl)-1H-pyrazole-3-carboxamide], in experiment [1], the urine albumin level result was “decrease” and the kidney fibrosis entry is “reduction”. Moreover, in experiment [2], the bone mineral density result is reported as “increase” and the trabecular bone microstructure entry was “improvement”. Moreover, the Mankin score entry in experiment [3] is given as “reduction”. In experiment [4] (oral dose up to 100 mg/kg), the “reversal of CB1 agonist-induced analgesic response” value is on record as “did not reverse or slightly reversed” and the “reversal of CB1 agonist-induced hypothermia” value is recorded as “did not reverse or slightly reversed”.
